Experimental data taken from patent publication US9622469B2, “Crosslink breakers for preservation of biological substances” (priority 2013, dated 2017).
Marks after values point to notes of the source that are not given here.

Experiments:
[1] = Cleavage of PPD (3) to benzoic acid by NHC precursors, Method B (MeCN co-solvent); format: biochemical; conditions: for Yield (%) of benzoic acid from cleavage of 3: MeCN/pH 7.4 phosphate buffer, 37° C., LCMS peak integration with respect to 3, background 5%; for Benzoic acid formation from 3 (in words): Method B screen of NHC precursors
Description: (§1) Dicarbonyl cleavage reactions were performed using either the method described in Vasan et al., An agent cleaving glucose-derived protein crosslinks in vitro and in vivo, Nature (1996) Vol. 382, pp. 275-278 (Method A) or a modified method with MeCN as a co-solvent (Method B).
(§2) 60 mM solution of dicarbonyl substrate (45 μmol) in MeCN (0.75 ml) was added to 20 mM solution of NHC (15 μmol) in 0.15 M pH 7.4 sodium phosphate buffer (0.75 ml) and kept stirred at 37° C. At stated times, 75 μl aliquots were taken, diluted with 50% MeCN/H2O (425 μl) and analyzed by LCMS with 2,4-dihydroxyquinoline (248 μM) as an internal standard. The cleavage products were quantified by peak integration against the calibration curves.
Thus, our first goal in these studies was to assess the ability of various NHC precursors to induce the degradation of the dicarbonyl model substrate (PPD, 3). To this end, we screened the thiazolium (4-6), benzothiazolium (7), triazolium (8,9) and imidazolium (10) halide substructures shown in Table 1.

[2] = physiological conditions; cited from earlier work
[3] = Cleavage of PPD by NHC precursors, Method A (alcoholic co-solvent); format: biochemical; conditions: for Combined % Yield (PhCO2H, PhCO2Me): co-solvent MeOH
Description: as §1
PPD (21 μl, 156 μmol) was added to a murky solution of NHC (2 or 4, 71 μmol) in 50% MeOH/0.5 M pH 7.4 sodium phosphate buffer (3.5 ml/3.5 ml; final conc. 10 mM NHC, 22 mM PPD) and kept stirred at 37° C. Approximately 0.5 ml aliquots were taken at stated times and analyzed by HPLC. Experiments using EtOH or iPrOH as a co-solvent were done in the same manner. Concentrations of benzoic acid and benzoate esters were determined by peak integration against the calibration curves.
Having learned that ALT-711 performed best among NHCs evaluated for PPD cleavage, we sought to test its substrate scope versus its N-benzyl counterpart (4). We therefore measured product distribution and yield while varying the co-solvent used to solubilize dicarbonyl substrates. As summarized in Table 2, we first investigated the performance of alcoholic co-solvents in PPD cleavage reactions. […] Despite this, however, the product distributions differed substantially: ALT-711 (2) predominantly afforded benzoic acid (PhCO2H:PhCO2Me=3.2:1, Entry 2), whereas 4 mostly gave rise to methyl benzoate (PhCO2H:PhCO2Me=1:2.2, Entry 4). Further replacement of the co-solvent with EtOH and i-PrOH in 4-catalyzed reactions led to a decrease in the proportion of ester production, still without altering overall yield (Entries 5 and 6).

mouse RBC = test: Storage of leukoreduced mouse blood in CPDA-1 at 4° C.: hemolysis and intact RBC count; format: cell-based; conditions: CPDA-1 buffer
Description: FIG. 1 illustrates OCR6043-mediated prolonging of the integrity of stored RBCs. Leuko reduced mouse blood was stored under FDA-approved storage conditions (CPDA-1 buffer at 4° C.) for up to 13 days, in either OCR6043, control compound (structurally similar to OCR6043, but nonfunctional as a AGE crosslink breaker), or without any additive.
This solution was stored at 4° C. according to FDA-approved conditions for 13 days. […] The steps to collect HOD blood from mice and the addition of the FDA-approved storage buffer CPDA are described in Hendrickson et al., Transfusion of fresh murine red blood cells reverses adverse effects of older stored red blood cells, Transfusion (2011) Vol. 12, pp. 2695-2702.
We also counted the intact RBCs using a hemocytometer after 13 days of storage as also depicted in FIG. 1.

[4] = system: HOD alloantigen on stored RBCs; test: Immunogenicity of stored blood upon transfusion (anti-HOD IgG ELISA); format: in vivo, mouse; conditions: blood stored 14 days, transfused into B6 mice, 14 days following transfusion
Description: Leuko-reduced mouse blood was stored under typical storage conditions for up to 14 days, in either OCR6043, control compound, or without any treatment. FIG. 2A illustrates an analysis of glucose in the serum from the stored blood was evaluated using a glucose oxidase enzymatic assay. […] FIG. 2B illustrates the AGE precursor levels on RBCs were measured using a dicarbonyl-specific fluorophore that was developed in-house. The time dependent increase in the AGE precursor levels was dampened in the presence of OCR6043. FIG. 2C illustrates mouse blood that was stored for 14 days, was evaluated for its immunogenicity upon transfusion, by testing for IgGs against an alloantigen on the RBCs (HOD=HEL-OVA-Duffy).
OCR6043 treatment decreases immunogenicity, and enhances post-transfusion recovery of stored mouse blood. Leukoreduced mouse blood was stored under typical storage conditions for up to 14 days in either OCR6043 or without any treatment. This mouse blood was evaluated for its immunogenicity upon transfusion by testing for IgGs against an alloantigen on the RBCs (HOD=HEL-OVA-Duffy).
As described herein, the stored blood has an HOD marker allowing facile detection after transfusion. We transfused […] of stored blood into B6 mice (not expressing the HOD antigen). […] The anti-HOD IgG response was evaluated using standard ELISA techniques described in Hendrickson et at.

[5] = NHC-mediated cleavage of benzil (15), Method B; format: biochemical; conditions: LCMS, with respect to dicarbonyl
Description: as §2
(§3) Our efforts to investigate the scope of thiazolium salt-mediated reactions with dicarbonyls began with bis-alkyl diketone 14 (Table 3, Entry 1). This substrate is cleaved cleanly by 2, and affords acid 18 in 82% yield. NHC precursor 4, on the other hand, provides 18 in only 14% yield (Entry 2). The efficiency of dicarbonyl cleavage reactions decreases substantially in the case of benzil (15, Entry 3), which affords benzoic acid in 14% and 1% yield following exposure to 2 and 4, respectively.

[6] = NHC-mediated cleavage of bis-alkyl diketone 14, Method B; format: biochemical; conditions: LCMS, with respect to dicarbonyl
Description: as §2, §3

[7] = NHC-mediated reaction with α-keto aldehyde phenylglyoxal (16), Method B; format: biochemical; conditions: LCMS, phenylglyoxal alone gives 25% benzoic acid
Description: as §2
Phenylglyoxal hydrate (16; 114 mg, 0.75 mmol, 2 eq) was added to a solution of ALT-711 (2; 100 mg, 0.37 mmol) in 50% MeCN/0.15 M pH 7.4 phosphate buffer (total vol. 37 ml) and kept stirred at room temperature for 15 mins. The reaction mixture was cooled to −20° C. to precipitate out sodium phosphate as white crystals. The supernatant was transferred, and the residue was washed with MeCN and combined with the supernatant. This yellow clear solution was concentrated at room temperature to remove MeCN and purified by HPLC (16-27MeCN over 31 min). […]
Reactions involving α-keto aldehyde derivatives 16 and 17 followed an unexpected course. Treatment of these substrates with 2 led to instantaneous, high-yield production of a diastercomeric mixture of cycloadducts (19 and 20) that decompose to complex mixtures under the reaction conditions with half-lives of approximately 3 h Structures were determined based on in-depth NMR analysis (see Supplementary Material).

Structure (SMILES)	Yield (%) of benzoic acid from cleavage of 3 ([1]; Method B)	Benzoic acid formation from 3 (in words) [1]	further results
Cc1sc[n+](Cc2ccccc2)c1C	20%	–	–
O=C(C[n+]1ccsc1)c1ccccc1.[Br-] [Compound 1, N-phenacylthiazolium bromide]	–	–	Half-life of decomposition [2]: 44 min; Combined % Yield (PhCO2H, PhCO2Me) [3]: 39%; RBC viability / intact RBCs (hemocytometer) (mouse RBC; 13 days): higher levels of intact RBCs; Immunogenicity upon transfusion (IgG against HOD alloantigen) [4]: lower immunogenicity
Cc1sc[n+](Cc2ccccc2)c1C.[Cl-] [Compound 4, 3-benzyl-4,5-dimethylthiazol-3-ium chloride]	–	substantially lower yields	Combined % Yield (PhCO2H) ([1]; co-solvent MeCN, Method B, LCMS, with respect to dicarbonyl): 20%; Combined % Yield (PhCO2H, PhCO2Et) ([3]; co-solvent EtOH): 60%; Combined % Yield (PhCO2H, PhCO2Me) [3]: 62%; Combined % Yield (PhCO2H, PhCO2iPr) ([3]; co-solvent i-PrOH): 58%; % Yield of PhCO2H from substrate 15 (benzil) [5]: 1%; % Yield of acid 18 from substrate 14 [6]: 14%; % Yield of PhCO2H from substrate 16 [7]: 30^c %
Cc1c(CCO)sc[n+]1Cc1ccccc1.[Cl-] [Compound 5]	–	substantially lower yields	–
[Cl-].c1ccc(C[n+]2csc3ccccc32)cc1 [Compound 7]	–	no observable levels of benzoic acid	–
Cn1c[n+](Cc2ccccc2)cn1.[Cl-] [Compound 8]	–	no observable levels of benzoic acid	–
Cn1c[n+](CC(=O)c2ccccc2)cn1.[Cl-] [Compound 9]	–	restores the reactivity to a small extent	–
Cn1cc[n+](CC(=O)c2ccccc2)c1.[Cl-] [Compound 10]	–	did not produce any benzoic acid	–
Cn1c[n+](CC(=O)c2ccccc2)cn1.[Cl-] [MPTC, 1-methyl-4-phenacyl-triazolium chloride]	–	–	Hemolysis of stored blood (supernatant appearance) (mouse RBC; up to 13 days, 12 mM): hemolysis
Cc1sc[n+](CC(=O)c2ccccc2)c1C.[Cl-] [drawing 8]	60%	–	–
Cc1c(CCO)sc[n+]1Cc1ccccc1.[Cl-] [drawing 10]	14%	–	–
[Cl-].c1ccc(C[n+]2csc3ccccc32)cc1 [drawing 12]	0^b %	–	–
Cn1c[n+](Cc2ccccc2)cn1.[Cl-] [drawing 13]	0^b %	–	–
Cn1c[n+](CC(=O)c2ccccc2)cn1.[Cl-] [drawing 14]	12%	–	–
Cn1cc[n+](CC(=O)c2ccccc2)c1.[Cl-] [drawing 15]	0^b %	–	–
